In ChEMBL document CHEMBL5136986, “DYRK1A inhibitors for disease therapy: Current status and perspectives” (Eur J Med Chem, 2022):
pIC50: −log10 of the molar value.

Tests used:
[1] = target: T1, Dual specificity tyrosine-phosphorylation-regulated kinase 1A (Homo sapiens, UniProt Q13627); experiment: Inhibition of DYRK1A (unknown origin)
[2] = Displacement of [gamma-33P]-ATP from GSK-3 derived from porcine brain using YRRAAVPPSPSLSRHSSPHQSpEDEEE as substrate incubated for 30 mins by scintillation counting analysis; design: species or system Sus scrofa
[3] = target: T1, Dual specificity tyrosine-phosphorylation-regulated kinase 1A; experiment: Inhibition of GST-fused recombinant human DYRK1A expressed in Escherichia coli using KKISGRLSPIMTEQ as substrate in presence of ATP
[4] = target: T1, Dual specificity tyrosine-phosphorylation-regulated kinase 1A; experiment: Inhibition of DYRK1A (unknown origin) using KKISGRLSPIMTEQ as substrate incubated for 30 mins in presence of ATP by ADP-Glo assay
[5] = target: T1, Dual specificity tyrosine-phosphorylation-regulated kinase 1A; experiment: Inhibition of N-terminal 6His-tagged recombinant human DYRK1A ([…] residues) expressed in Escherichia coli BL21(DE3) using RARPGTPALRE as substrate incubated for 60 mins in presence of ATP/NADH by enzymatic assay

For `Nc1ncc(-c2ccccc2)nc1C(=O)Nc1cnccc1N1CCC(N)CC1`, the pIC50 [1] was 7.41.
Work on `O=c1c2c(ccc3nc(-c4cccnc4)sc32)ncn1C1CC1` yielded a pIC50 [2] of 7.17.
With `O=c1c2c(ccc3nc(-c4cnccn4)sc32)ncn1Cc1ccccc1` the pIC50 [3] was 6.95 and the pIC50 [2] was 5.22.
Work on `Nc1ncc(-c2ccccc2F)nc1C(=O)Nc1cnccc1N1CCC(C(=O)O)CC1` yielded a pIC50 [1] of 6.61.
Work on `O=C1CCCc2[nH]c3c(Cl)cccc3c21` yielded a pIC50 [4] of 5.80.
In the case of `O=c1c2c(ccc3nc(-c4cccnc4)sc32)ncn1Cc1ccccc1`, the pIC50 [2] was 5.43.
For `O=C1c2c([nH]c3c(Cl)cccc23)CCC1N1CCCCC1` (centres undefined), the pIC50 [4] was < 5.00.
In the case of `COc1c(CC=C(C)C)c(O)cc2oc(-c3ccc(O)cc3O)cc12` [LICOCOUMARONE], the pIC50 [5] was 4.90.
